Tests used:
human SSAO = human SSAO (Homo sapiens (Human), UniProt Q16853); experiment: SSAO enzyme inhibition assay (benzylamine substrate; hydrogen peroxide/HRP or aldehyde detection); type: biochemical; conditions: purified recombinantly expressed human SSAO, RT
Method: All primary assays were performed at RT. with purified recombinantly expressed human SSAO. Enzyme was prepared essentially as described in Öhman et al. (Protein Expression and Purification 46 (2006) 321-331). In addition, secondary- and selectivity assays were performed using SSAO prepared from various tissues or purified rat recombinant SSAO. The enzyme activity was assayed with benzylamine as substrate by measuring either benzaldehyde production, using ^14C-labeled substrate, or by utilizing the production of hydrogen peroxide in a horseradish peroxidase (HRP) coupled reaction. Briefly, test compounds were dissolved in dimethyl sulfoxide (DMSO) to a concentration of 10 mM. Dose-response measurements were assayed by either creating 1:10 serial dilutions in DMSO to produce a 7 point curve or by making 1:3 serial dilutions in DMSO to produce 11 point curves. The top concentrations were adjusted depending on the potency of the compounds and subsequent dilution in reaction buffer yielded a final DMSO concentration ≦2%.
In a horseradish peroxidase (HRP) coupled reaction, hydrogen peroxide oxidation of 10-acetyl-3,7-dihydroxyphenoxazine produced resorufin, which is a highly fluorescent compound (Zhout and Panchuk-Voloshina. Analytical Biochemistry 253 (1997) 169-174; Amplex® Red Hydrogen Peroxide/peroxidase Assay kit, Invitrogen A22188). Enzyme and compounds in 50 mM sodium phosphate, pH 7.4 were set to pre-incubate in flat-bottomed microtiter plates for approximately 15 min before initiating the reaction by addition of a mixture of HRP, benzylamine and Amplex reagent. Benzylamine concentration was fixed at a concentration corresponding to the Michaelis constant, determined using standard procedures. Fluorescence intensity was then measured at several time points during 1-2 h, exciting at 544 nm and reading the emission at 590 nm. For the human SSAO assay final concentrations of the reagents in the assay wells were: SSAO enzyme 1 ug/ml, benzylamine 100 uM, Amplex reagent 20 uM, HRP 0.1 U/mL and varying concentrations of test compound. The inhibition was measured as % decrease of the signal compared to a control without inhibitor (only diluted DMSO). The background signal from a sample containing no SSAO enzyme was subtracted from all data points. Data was fitted to a four parameter logistic model and IC50 values were calculated using the GraphPad Prism 4 or XLfit 4 programs.
SSAO activity was assayed using […] benzylamine and analysed by measuring radioactive benzaldehyde. In a white 96-well optiplate (Packard), 20 uL of diluted test compound was pre-incubated at room temperature with 20 uL SSAO enzyme for approximately 15 min with continuous agitation. All dilutions were made with PBS. The reaction was initiated by adding 20 uL of the benzylamine substrate solution containing Benzylamine hydrochloride (CFA589, GE Healthcare). The plate was incubated for 1 h as above after which the reaction was stopped by acidification (10 uL 1M aq HCl). Then 90 uL Micro Scint-E solution (Perkin-Elmer) was added to each well and the plate was continuously mixed for 15 min. Phase separation occurred instantly and activity was read in a Topcount scintillation counter (Perkin-Elmer). In the final reaction well, the human recombinant SSAO concentration was 10 ug/ml. In order to optimize sensitivity, the substrate concentration was decreased as compared to the HRP coupled assay in order to get a higher fraction of radioactive product. In the human SSAO assay, benzylamine concentration was 40 uM (0.2 uCi/mL). Data was analysed as above.

hERG K+ channel = hERG K+ channel (Homo sapiens (Human), UniProt Q12809); experiment: hERG assay, IonWorks patch clamp electrophysiology; type: cell-based; conditions: Chinese Hamster Lung cell line stably expressing hERG, IonWorks Quattro, max 11 uM
Method: Compounds of the invention were tested for inhibition of the human ether a go-go related gene (hERG) K^+ channel using IonWorks patch clamp electrophysiology. 8 Point concentration-response curves were generated on two occasions using 3-fold serial dilutions from the maximum assay concentration (11 uM). Electrophysiological recordings were made from a Chinese Hamster Lung cell line stably expressing the full length hERG channel. Single cell ion currents were measured in the perforated patch clamp configuration (100 ug/mL amphoterocin) at room temperature using an IonWorks Quattro instrument. The internal solution contained 140 mM KCl, 1 mM MgCl2, 1 mM EGTA and 20 mM HEPES and was buffered to pH 7.3. The external solution contained 138 mM NaCl, 2.7 mM KCl, 0.9 mM CaCl2, 0.5 mM MgCl2, 8 mM Na2HPO4 and 1.5 mM KH2PO4, and was buffered to pH 7.3. Cells were clamped at a holding potential of […] for 30 s and then stepped to +40 mV for 1 s. This was followed by a hyperpolarising step of 1 s to […] to evoke the hERG tail current. This sequence was repeated 5 times at a frequency of 0.25 Hz. Currents were measured from the tail step at the 5th pulse, and referenced to the holding current. […] A minimum of 17 cells were required for each pIC50 curve fit.

Chain of human SSAO (Q16853 whole entry): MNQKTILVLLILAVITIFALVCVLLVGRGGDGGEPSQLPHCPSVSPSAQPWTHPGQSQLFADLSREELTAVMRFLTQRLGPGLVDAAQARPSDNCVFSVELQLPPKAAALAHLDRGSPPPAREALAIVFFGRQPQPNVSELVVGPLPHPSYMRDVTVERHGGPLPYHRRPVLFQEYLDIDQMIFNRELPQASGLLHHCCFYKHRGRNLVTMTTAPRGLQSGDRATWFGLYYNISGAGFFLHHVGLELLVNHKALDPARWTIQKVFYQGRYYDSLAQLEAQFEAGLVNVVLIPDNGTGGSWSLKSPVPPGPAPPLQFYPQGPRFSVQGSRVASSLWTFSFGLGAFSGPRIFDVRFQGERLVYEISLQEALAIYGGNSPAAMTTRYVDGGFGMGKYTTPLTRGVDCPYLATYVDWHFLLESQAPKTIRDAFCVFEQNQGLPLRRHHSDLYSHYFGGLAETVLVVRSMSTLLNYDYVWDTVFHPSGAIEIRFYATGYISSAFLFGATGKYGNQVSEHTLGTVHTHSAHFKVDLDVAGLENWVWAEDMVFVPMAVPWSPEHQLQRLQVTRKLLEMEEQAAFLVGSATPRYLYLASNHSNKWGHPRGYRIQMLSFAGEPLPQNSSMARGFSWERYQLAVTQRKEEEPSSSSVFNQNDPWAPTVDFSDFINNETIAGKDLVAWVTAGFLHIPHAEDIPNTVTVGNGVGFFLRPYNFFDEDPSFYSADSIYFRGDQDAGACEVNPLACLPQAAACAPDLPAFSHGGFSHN
Chain of hERG K+ channel (Q12809 whole entry): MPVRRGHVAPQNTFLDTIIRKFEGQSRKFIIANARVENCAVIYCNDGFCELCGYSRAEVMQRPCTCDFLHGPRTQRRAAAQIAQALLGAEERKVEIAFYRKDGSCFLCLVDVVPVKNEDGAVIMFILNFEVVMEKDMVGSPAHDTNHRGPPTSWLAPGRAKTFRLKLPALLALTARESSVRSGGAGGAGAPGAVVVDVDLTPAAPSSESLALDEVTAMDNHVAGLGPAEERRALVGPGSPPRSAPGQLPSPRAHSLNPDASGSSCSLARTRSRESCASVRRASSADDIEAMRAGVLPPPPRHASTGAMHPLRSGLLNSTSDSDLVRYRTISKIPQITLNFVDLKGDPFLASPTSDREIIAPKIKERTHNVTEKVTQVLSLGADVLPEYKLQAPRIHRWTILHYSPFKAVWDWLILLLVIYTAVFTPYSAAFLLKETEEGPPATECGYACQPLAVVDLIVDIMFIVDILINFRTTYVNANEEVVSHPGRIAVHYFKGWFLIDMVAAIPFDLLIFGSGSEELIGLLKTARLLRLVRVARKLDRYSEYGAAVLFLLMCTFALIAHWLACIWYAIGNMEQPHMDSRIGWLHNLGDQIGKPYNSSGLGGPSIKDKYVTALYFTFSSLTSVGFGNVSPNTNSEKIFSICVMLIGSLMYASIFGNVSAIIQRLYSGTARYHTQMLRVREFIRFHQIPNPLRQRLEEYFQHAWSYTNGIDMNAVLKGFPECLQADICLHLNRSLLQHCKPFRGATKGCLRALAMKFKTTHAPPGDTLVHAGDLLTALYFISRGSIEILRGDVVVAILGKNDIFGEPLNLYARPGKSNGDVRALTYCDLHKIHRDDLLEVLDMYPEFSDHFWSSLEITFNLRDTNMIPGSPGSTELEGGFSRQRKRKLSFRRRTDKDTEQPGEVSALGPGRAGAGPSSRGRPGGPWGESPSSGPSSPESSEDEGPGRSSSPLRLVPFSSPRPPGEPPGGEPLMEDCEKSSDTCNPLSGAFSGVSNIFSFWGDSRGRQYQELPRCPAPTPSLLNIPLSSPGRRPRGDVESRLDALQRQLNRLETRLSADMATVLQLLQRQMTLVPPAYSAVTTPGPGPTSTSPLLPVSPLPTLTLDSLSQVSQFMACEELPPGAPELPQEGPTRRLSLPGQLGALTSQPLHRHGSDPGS

Row | SMILES | IC50 (human SSAO) [nM] | IC50 (hERG K+ channel; human, pH 7.3) [nM] | IC50 (hERG K+ channel) [nM]
1 | NC(=O)N1CCC(c2c(-c3ccc(N)nc3)n(-c3ccc(Cl)cc3)c3cnccc23)CC1 [Example 1, 4-[2-(6-Aminopyridin-3-yl)-1-(4-chlorophenyl)-1H-pyrrolo[2,3-c]pyridin-3-yl]piperidine-1-carboxamide] | < 10 | 1000 to 10000 | –
2 | NC(=O)N1CCC(c2c(-c3cccnc3)n(-c3ccc(Cl)cc3)c3cnccc23)CC1 [Example 2, 4-[1-(4-Chlorophenyl)-2-(pyridin-3-yl)-1H-pyrrolo[2,3-c]pyridin-3-yl]piperidine-1-carboxamide; formic acid] | 10 to 100 | 1000 to 10000 | –
3 | COc1ccc(-c2c(C3CCN(C(N)=O)CC3)c3ccncc3n2-c2ccc(Cl)cc2)cn1 [Example 3, 4-[1-(4-Chlorophenyl)-2-(6-methoxypyridin-3-yl)-1H-pyrrolo[2,3-c]pyridin-3-yl]piperidine-1-carboxamide; formic acid] | < 10 | – | –
4 | COc1cc(-c2c(C3CCN(C(N)=O)CC3)c3ccncc3n2-c2ccc(Cl)cc2)ccn1 [Example 4, 4-[1-(4-Chlorophenyl)-2-(2-methoxypyridin-4-yl)-1H-pyrrolo[2,3-c]pyridin-3-yl]piperidine-1-carboxamide; formic acid] | < 10 | – | 100 to 1000
5 | CN1CCN(c2cc(-c3c(C4CCN(C(N)=O)CC4)c4ccncc4n3-c3ccc(Cl)cc3)ccn2)CC1 [Example 5, 4-[1-(4-Chlorophenyl)-2-[2-(4-methylpiperazin-1-yl)pyridin-4-yl]-1H-pyrrolo[2,3-c]pyridin-3-yl]piperidine-1-carboxamide; bis(formic acid)] | < 10 | – | –
6 | NC(=O)N1CCC(c2c(-c3ccc(N4CCOCC4)nc3)n(-c3ccc(Cl)cc3)c3cnccc23)CC1 [Example 6, 4-[1-(4-Chlorophenyl)-2-[6-(morpholin-4-yl)pyridin-3-yl]-1H-pyrrolo[2,3-c]pyridin-3-yl]piperidine-1-carboxamide] | < 10 | – | –
7 | NC(=O)N1CCC(c2c(-c3cncnc3)n(-c3ccc(Cl)cc3)c3cnccc23)CC1 [Example 7, 4-[1-(4-Chlorophenyl)-2-(pyrimidin-5-yl)-1H-pyrrolo[2,3-c]pyridin-3-yl]piperidine-1-carboxamide] | 10 to 100 | 1000 to 10000 | –
8 | NC(=O)N1CCC(c2c(-c3cc[nH]n3)n(-c3ccc(Cl)cc3)c3cnccc23)CC1 [Example 8, 4-[1-(4-Chlorophenyl)-2-(1H-pyrazol-3-yl)-1H-pyrrolo[2,3-c]pyridin-3-yl]piperidine-1-carboxamide] | 10 to 100 | 1000 to 10000 | –
9 | NC(=O)N1CCC(c2c(-c3cn[nH]c3)n(-c3ccc(Cl)cc3)c3cnccc23)CC1 [Example 9, 4-[1-(4-Chlorophenyl)-2-(1H-pyrazo1-4-yl)-1H-pyrrolo[2,3-c]pyridin-3-yl]piperidine-1-carboxamide] | < 10 | – | > 10000
10 | Cn1cc(-c2c(C3CCN(C(N)=O)CC3)c3ccncc3n2-c2ccc(Cl)cc2)cn1 [Example 10, 4-[1-(4-Chlorophenyl)-2-(1-methyl-1H-pyrazol-4-yl)-1H-pyrrolo[2,3-c]pyridin-3-yl]piperidine-1-carboxamide; trifluoroacetic acid] | < 10 | – | –
11 | Cn1nccc1-c1c(C2CCN(C(N)=O)CC2)c2ccncc2n1-c1ccc(Cl)cc1 [Example 11, 4-[1-(4-Chlorophenyl)-2-(1-methyl-1H-pyrazol-5-yl)-1H-pyrrolo[2,3-c]pyridin-3-yl]piperidine-1-carboxamide] | < 10 | – | –
12 | Cn1cncc1-c1c(C2CCN(C(N)=O)CC2)c2ccncc2n1-c1ccc(Cl)cc1 [Example 12, 4-[1-(4-Chlorophenyl)-2-(1-methyl-1H-imidazol-5-yl)-1H-pyrrolo[2,3-c]pyridin-3-yl]piperidine-1-carboxamide] | < 10 | – | > 10000
13 | NC(=O)N1CCC(c2c(-n3cccn3)n(-c3ccc(Cl)cc3)c3cnccc23)CC1 [Example 13, 4-[1-(4-Chlorophenyl)-2-(1H-pyrazol-1-yl)-1H-pyrrolo[2,3-c]pyridin-3-yl]piperidine-1-carboxamide; formic acid] | 10 to 100 | 1000 to 10000 | –

The next lines start with results.

Row | IC50 (human SSAO) [nM] | SMILES | IC50 (hERG K+ channel; human, pH 7.3) [nM] | IC50 (hERG K+ channel) [nM]
14 | 10 to 100 | NC(=O)N1CCC(c2c(-n3ccnc3)n(-c3ccc(Cl)cc3)c3cnccc23)CC1 [Example 14, 4-[1-(4-Chlorophenyl)-2-(1H-imidazol-1-yl)-1H-pyrrolo[2,3-c]pyridin-3-yl]piperidine-1-carboxamide; bis(formic acid)] | – | > 10000
15 | 100 to 350 | NC(=O)N1CCC(c2c(-n3ccnn3)n(-c3ccc(Cl)cc3)c3cnccc23)CC1 [Example 15, 4-[1-(4-Chlorophenyl)-2-(1H-1,2,3-triazol-1-yl)-1H-pyrrolo[2,3-c]pyridin-3-yl]piperidine-1-carboxamide] | – | –
16 | 100 to 350 | NC(=O)N1CCC(c2c(-n3cncn3)n(-c3ccc(Cl)cc3)c3cnccc23)CC1 [Example 16, 4-[1-(4-Chlorophenyl)-2-(1H-1,2,4-triazol-1-yl)-1H-pyrrolo[2,3-c]pyridin-3-yl]piperidine-1-carboxamide] | – | –
17 | < 10 | Clc1ccc(-n2c(-c3ccncc3)c(C3CCNCC3)c3ccncc32)cc1 [Example 17, 4-[1-(4-Chlorophenyl)-3-(piperidin-4-yl)-1H-pyrrolo[2,3-c]pyridin-2-yl]pyridine] | 1000 to 10000 | –
18 | 10 to 100 | Nc1ccc(-c2c(C3CCNCC3)c3ccncc3n2-c2ccc(Cl)cc2)cn1 [Example 18, 5-[1-(4-Chlorophenyl)-3-(piperidin-4-yl)-1H-pyrrolo[2,3-c]pyridin-2-yl]pyridin-2-amine] | – | > 10000
19 | 10 to 100 | CN(C)Cc1c(-c2ccncc2)n(-c2ccc(Cl)cc2)c2cnccc12 [Example 19, {[1-(4-Chlorophenyl)-2-(pyridin-4-yl)-1H-pyrrolo[2,3-c]pyridin-3-yl]methyl}dimethyl amine] | 1000 to 10000 | –
20 | 100 to 350 | CN(C)Cc1c(-c2cccnc2)n(-c2ccc(Cl)cc2)c2cnccc12 [Example 20, {[1-(4-Chlorophenyl)-2-(pyridin-3-yl)-1H-pyrrolo[2,3-c]pyridin-3-yl]methyl}dimethyl amine] | – | –
21 | 100 to 350 | Clc1ccc(-n2c(-c3nn[nH]n3)c(C3CCNCC3)c3ccncc32)cc1 [Example 21, 4-[1-(4-Chlorophenyl)-2-(2H-1,2,3,4-tetrazol-5-yl)-1H-pyrrolo[2,3-c]pyridin-3-yl]piperidine; bis(trifluoroacetic acid)] | – | > 10000

From patent publication US9580415B2, “Compounds” (Proximagen Limited, priority 2013, dated 2017)
